Experiment [1] addresses human IRAK4 (Homo sapiens (Human), UniProt Q9NWZ3). In words: IRAK4 kinase assay (IRAK4 TR-FRET assay). The conditions noted are these: 1 mM ATP. The experiment is classed as biochemical. The method, boiled down:
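GST-human IRAK4 (insect-cell expressed, ~0.2 nM) was prebound 15 min with compound, then reacted 45 min at 22° C with 1 mM ATP and 0.5 μM biotinylated peptide in HEPES pH 7.5. Phosphopeptide detected by TR-FRET (665/620 nm). IC50 from 4-parameter fit over 11 concentrations, 20 μM-0.073 nM.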

For experiment [2], the system named is secretion of TNF-α in THP-1 cells. Description: TNF-α secretion in THP-1 cells (LPS-triggered). The experiment is classed as cell-based, human. The settings on record: LPS 0.05 μg/ml, read-out: IC50 with respect to the secretion of TNF-α in THP-1 cells. Here is the method: TNF-α Secretion in THP-1 Cells
With the aid of this test, it is possible to test substances for their ability to inhibit secretion of TNF-α (tumour necrosis factor alpha) in THP-1 cells (human monocytic acute leukaemia cell line). TNF-α is a cytokine involved in inflammatory processes. In this test, TNF-α secretion is triggered by incubation with bacterial lipopolysaccharide (LPS).
THP-1 cells are kept in continuous suspension cell culture [RPMI 1460 medium with L-Glutamax (Gibco, Cat No. 61870-044) supplemented with foetal calf serum (FCS) 10% (Invitrogen, Cat No. 10082-147), 1% penicillin/streptomycin (Gibco BRL, Cat No. 15140-114)] and should not exceed a cell concentration of 1×10^6 cells/ml. The assay is carried out in cell culture medium (RPMI 1460 medium with L-Glutamax supplemented with FCS 10%).
In each case 2-2.5 μl of the cell suspension (corresponds to 4000 cells) per well were dispensed into a 384-well test plate (Greiner, Cat No. 784076), in each of which 40-50 nl substance had been dissolved in 100% DMSO. This was done using […] in the range from 20 μM to 0.073 nM for each substance. The cells were incubated at room temperature for 15 min. 2-2.5 μl of 0.1 μg/ml LPS (Sigma, Escherichia coli 055:B5, Cat. No. L5418) dissolved in cell culture medium (final concentration 0.05 μg/ml) were then dispensed into each well. As neutral control, cells were treated with 0.05 μg/ml LPS and 1% DMSO and, as inhibitor control, with 1% DMSO only.
The plates were centrifuged at 80 g for 30 s and incubated at 37° C., 5% CO2 and 95% atmospheric humidity for 17 h. The amount of TNF-α was determined using the TNF-alpha HTRF Detection Kit (Cisbio, Cat No. 62TNFPEB/C). To this end, 2 μl of the detection solution in each case, consisting of anti-TNF-α-XL665 conjugate and anti-TNF-α-cryptate conjugate dissolved in the reconstitution buffer in accordance with the manufacturer's instructions, were added for the HTRF (Homogeneous Time-Resolved Fluorescence) test. After the addition, the mixture was incubated either at room temperature for 3 h or at 4° C. overnight. The signals were then read at 620/665 nm using an HTRF-enabled measuring instrument such as the BMG PheraStar.
The activity of the substances is expressed as the ratio between neutral and inhibitor control in percent. The IC50 values were calculated using a 4-parameter fit.

pIC50: −log10 of the molar value. Like-named read-outs stand apart in the source and are kept apart here.

Our source for the IC50 values is patent publication US10435396B2, “2-substituted indazoles, methods for producing same, pharmaceutical preparations that contain same, and use of same to produce drugs” (Bayer Pharma Aktiengesellschaft, priority 2016, dated 2019).

human IRAK4, sequence (Q9NWZ3 whole entry): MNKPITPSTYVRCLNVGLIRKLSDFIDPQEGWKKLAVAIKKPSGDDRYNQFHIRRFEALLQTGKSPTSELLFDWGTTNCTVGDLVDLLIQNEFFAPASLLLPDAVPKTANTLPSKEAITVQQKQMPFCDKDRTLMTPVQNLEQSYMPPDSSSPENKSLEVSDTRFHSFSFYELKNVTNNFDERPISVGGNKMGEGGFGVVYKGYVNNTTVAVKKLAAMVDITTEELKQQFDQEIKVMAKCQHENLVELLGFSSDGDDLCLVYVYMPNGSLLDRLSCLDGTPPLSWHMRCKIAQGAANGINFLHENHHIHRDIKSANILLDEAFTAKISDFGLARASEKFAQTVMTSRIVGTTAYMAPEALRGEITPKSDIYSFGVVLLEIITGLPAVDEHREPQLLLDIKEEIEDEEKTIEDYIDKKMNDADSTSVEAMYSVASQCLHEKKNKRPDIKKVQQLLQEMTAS

For `COc1cc2nn(C3CCN(C(=O)CO)CC3)cc2cc1NC(=O)c1cccc(C(F)(F)F)n1` [Example 5, N-[2-(1-Glycoloylpiperidin-4-yl)-6-methoxy-2H-indazol-5-yl]-6-(trifluoromethyl)pyridine-2-carboxamide], the pIC50 in experiment [1] was 8.70; in experiment [2] (Homo sapiens, THP-1, 17 h), 6.68.
For `COc1cc2nn(C3CCN(C)CC3)cc2cc1NC(=O)c1cccc(C(F)(F)F)n1` [Example 4, N-[6-Methoxy-2-(1-methylpiperidin-4-yl)-2H-indazol-5-yl]-6-(trifluoromethyl)pyridine-2-carboxamide] the same measures were 9.00 and 6.85.
For `COc1cc2nn(C3CCNCC3)cc2cc1NC(=O)c1cccc(C(F)(F)F)n1` [Example 2, N-[6-Methoxy-2-(piperidin-4-yl)-2H-indazol-5-yl]-6-(trifluoromethyl)pyridine-2-carboxamide] the same measures were 9.00 and 6.89.
For `COc1cc2nn(C3CCN(CCO)CC3)cc2cc1NC(=O)c1cccc(C(F)(F)F)n1` [Example 13, N-{2-[1-(2-Hydroxyethyl)piperidin-4-yl]-6-methoxy-2H-indazol-5-yl}-6-(trifluoromethyl)pyridine-2-carboxamide] the same measures were 9.00 and 6.85.
For `COc1cc2nn(C3CC[S+]([O-])CC3)cc2cc1NC(=O)c1cccc(C(F)(F)F)n1` (racemic) [Example 12, rac-N-[6-Methoxy-2-(1-oxidotetrahydro-2H-thiopyran-4-yl)-2H-indazol-5-yl]-6-(trifluoromethyl)pyridine-2-carboxamide], the pIC50 in experiment [1] was 8.70; in experiment [2] (Homo sapiens, THP-1, 17 h), 7.00.
For `COc1cc2nn(C3CCOCC3)cc2cc1NC(=O)c1cccc(C(C)(C)O)n1` [Example 28, 6-(2-Hydroxypropan-2-yl)-N-[6-methoxy-2-(tetrahydro-2H-pyran-4-yl)-2H-indazol-5-yl]pyridine-2-carboxamide] the same measures were 8.52 and 6.39.
The matching figures for `COc1cc2nn(C3CCOCC3)cc2cc1NC(=O)c1cccc(C(F)F)n1` [Example 23, 6-(Difluoromethyl)-N-[6-methoxy-2-(tetrahydro-2H-pyran-4-yl)-2H-indazol-5-yl]pyridine-2-carboxamide]: 9.00 and 6.64.
For the molecule `COc1cc2nn(C3CCN(C4COC4)CC3)cc2cc1NC(=O)c1cccc(C(F)(F)F)n1` [Example 10, N-{6-Methoxy-2-[1-(oxetan-3-yl)piperidin-4-yl]-2H-indazol-5-yl}-6-(trifluoromethyl)pyridine-2-carboxamide], the pIC50 in experiment [1] is 8.52; in experiment [2] (Homo sapiens, THP-1, 17 h), 6.77.
As for `COc1cc2nn(C3CCS(=N)(=O)CC3)cc2cc1NC(=O)c1cccc(C(F)(F)F)n1` (single isomer, unassigned) [Example 21, N-[2-(1-Imino-1-oxidohexahydro-1λ^4-thiopyran-4-yl)-6-methoxy-2H-indazol-5-yl]-6-(trifluoromethyl)pyridine-2-carboxamide], the pIC50 in experiment [1] was 8.52; in experiment [2] (17 h), 6.77.
Take `CC(C)(O)c1cc2nn(C3CCNCC3)cc2cc1NC(=O)c1cccc(C(F)(F)F)n1` [Example 46, N-[6-(2-Hydroxypropan-2-yl)-2-(piperidin-4-yl)-2H-indazol-5-yl]-6-(trifluoromethyl)pyridine-2-carboxamide]: the pIC50 was 8.52 in experiment [1] and 7.05 in experiment [2] (Homo sapiens, THP-1, 17 h).
The matching figures for `COc1cc2nn(C3CCOCC3)cc2cc1NC(=O)c1cccc(C(F)(F)F)n1` [Example 1, N-[6-Methoxy-2-(tetrahydro-2H-pyran-4-yl)-2H-indazol-5-yl]-6-(trifluoromethyl)pyridine-2-carboxamide]: 8.52 and 6.68.
As to `COc1cc2nn(C3CCS(=N)(=O)CC3)cc2cc1NC(=O)c1cccc(C(F)(F)F)n1` (single isomer, unassigned) [Example 20, N-[2-(1-Imino-1-oxidohexahydro-1λ^4-thiopyran-4-yl)-6-methoxy-2H-indazol-5-yl]-6-(trifluoromethyl)pyridine-2-carboxamide], the pIC50 in experiment [1] is 8.40; in experiment [2] (17 h) it was 7.22.
On to `COc1cc2nn(C3CCOCC3)cc2cc1NC(=O)c1cccc(N2CCOCC2)n1` [Example 24, N-[6-Methoxy-2-(tetrahydro-2H-pyran-4-yl)-2H-indazol-5-yl]-6-(morpholin-4-yl)pyridine-2-carboxamide], for which the pIC50 in experiment [1] was 8.70; in experiment [2] (Homo sapiens, THP-1, 17 h), 6.77.
The matching figures for `CC(C)(O)c1cc2nn(C3CCS(=O)(=O)CC3)cc2cc1NC(=O)c1cccc(C(F)(F)F)n1` [Example 44, N-[2-(1,1-Dioxidotetrahydro-2H-thiopyran-4-yl)-6-(2-hydroxypropan-2-yl)-2H-indazol-5-yl]-6-(trifluoromethyl)pyridine-2-carboxamide]: 8.30 and 6.77.
For `COc1cc2nn([C@@H]3C[C@@H]4C[C@H]3CN4C)cc2cc1NC(=O)c1cccc(C(F)(F)F)n1` (relative stereo) [Example 18, rel-N-{6-Methoxy-2-[(1S,4S,5R)-2-methyl-2-azabicyclo[2.2.1]hept-5-yl]-2H-indazol-5-yl}-6-(trifluoromethyl)pyridine-2-carboxamide] the same measures were 8.70 and 7.22.
